What follows are compounds tested against GST-Bc1-2 (Homo sapiens, UniProt P10415) (assay: Time Resolved-Fluorescence Resonance Energy Transfer (TR-FRET) Bcl-2 binding assay with F-Bak peptide probe). Settings: GST-Bcl-2 1 nM, F-Bak probe 100 nM, Tb-anti-GST 1 nM; '<' = below limit of detection; read-out: TR-FRET Bcl-2 Binding Ki.
Sequence of GST-Bc1-2 (P10415 whole entry): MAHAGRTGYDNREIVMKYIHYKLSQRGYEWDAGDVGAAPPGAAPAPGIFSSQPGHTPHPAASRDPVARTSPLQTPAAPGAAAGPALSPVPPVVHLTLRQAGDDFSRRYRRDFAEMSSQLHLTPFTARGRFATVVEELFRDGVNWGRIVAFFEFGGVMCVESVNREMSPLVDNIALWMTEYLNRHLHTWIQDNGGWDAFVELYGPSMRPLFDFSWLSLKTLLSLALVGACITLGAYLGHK
Protocol: The samples are then mixed on a shaker for 1 minute and incubated for an additional 3 hours at room temperature. For each assay, the probe/antibody and protein/probe/antibody were included on each assay plate as negative and positive controls, respectively.
The samples were then mixed on a shaker for 1 minute and incubated for an additional 3 hours at room temperature. For each assay, the probe/antibody and protein/probe/antibody were included on each assay plate as negative and positive controls, respectively.

CC1(C)CCC(CN2CCN(c3ccc(C(=O)NS(=O)(=O)c4ccc(NC5CN(C6CCOC6)C5)c([N+](=O)[O-])c4)c(Oc4cnc5[nH]ccc5c4)c3)CC2)=C(c2ccc(Cl)cc2)C1 (stereo not shown) [Example 117, 4-(4-{[2-(4-chlorophenyl)-4,4-dimethylcyclohex-1-en-1-yl]methyl}piperazin-1-yl)-N-({3-nitro-4-[(1-tetrahydrofuran-3-ylazetidin-3-yl)amino]phenyl}sulfonyl)-2-(1H-pyrrolo[2,3-b]pyridin-5-yloxy)benzamide] and CC1(C)CCC(CN2CCN(c3ccc(C(=O)NS(=O)(=O)c4ccc(NCC5CCOC5)c([N+](=O)[O-])c4)c(Oc4cnc5[nH]ccc5c4)c3)CC2)=C(c2ccc(Cl)cc2)C1 (stereo not shown) [Example 114, 4-(4-{[2-(4-chlorophenyl)-4,4-dimethylcyclohex-1-en-1-yl]methyl}piperazin-1-yl)-N-({3-nitro-4-[(tetrahydrofuran-3-ylmethyl)amino]phenyl}sulfonyl)-2-(1H-pyrrolo[2,3-b]pyridin-5-yloxy)benzamide] cannot be ordered by Ki: less than 10 pM for the first, less than 10 pM for the second.

First: CC1(C)CCC(CN2CCN(c3ccc(C(=O)NS(=O)(=O)c4cnc(OCC5CCOCC5)c(C#N)c4)c(Oc4cnc5[nH]ccc5c4)c3)CC2)=C(c2ccc(Cl)cc2)C1 [Example 36, 4-(4-{[2-(4-chlorophenyl)-4,4-dimethylcyclohex-1-en-1-yl]methyl}piperazin-1-yl)-N-{[5-cyano-6-(tetrahydro-2H-pyran-4-ylmethoxy)pyridin-3-yl]sulfonyl}-2-(1H-pyrrolo[2,3-b]pyridin-5-yloxy)benzamide]
Second: COCCOc1ncc(S(=O)(=O)NC(=O)c2ccc(N3CCN(CC4=C(c5ccc(Cl)cc5)CC(C)(C)CC4)CC3)cc2Oc2cnc3[nH]ccc3c2)cc1Cl [Example 292, N-{[5-chloro-6-(2-methoxyethoxy)pyridin-3-yl]sulfonyl}-4-(4-{[2-(4-chlorophenyl)-4,4-dimethylcyclohex-1-en-1-yl]methyl}piperazin-1-yl)-2-(1H-pyrrolo[2,3-b]pyridin-5-yloxy)benzamide]
The Ki of the first is 11-fold lower: 17 pM for the first, 190 pM for the second. The first binds more tightly here.

Compared with CC1(C)CCC(CN2CCN(c3ccc(C(=O)NS(=O)(=O)c4cnc(NCC5CN(C6CC6)CCO5)c(Cl)c4)c(Oc4cnc5[nH]ccc5c4)c3)CC2)=C(c2ccc(Cl)cc2)C1 (stereo not shown) [Example 335, N-[(5-chloro-6-{[(4-cyclopropylmorpholin-2-yl)methyl]amino}pyridin-3-yl)sulfonyl]-4-(4-{[2-(4-chlorophenyl)-4,4-dimethylcyclohex-1-en-1-yl]methyl}piperazin-1-yl)-2-(1H-pyrrolo[2,3-b]pyridin-5-yloxy)benzamide], CN1CCOC(CNc2ccc(S(=O)(=O)NC(=O)c3ccc(N4CCN(CC5=C(c6ccc(Cl)cc6)CC(C)(C)CC5)CC4)cc3Oc3cnc4[nH]ccc4c3)cc2[N+](=O)[O-])C1 (stereo not shown) [Example 134, 4-(4-{[2-(4-chlorophenyl)-4,4-dimethylcyclohex-1-en-1-yl]methyl}piperazin-1-yl)-N-[(4-{[(4-methylmorpholin-2-yl)methyl]amino}-3-nitrophenyl)sulfonyl]-2-(1H-pyrrolo[2,3-b]pyridin-5-yloxy)benzamide] is lower in Ki: 150 pM for the first, less than 10 pM for the second. The second binds more tightly here.

First: CO[C@H]1CC[C@@H](COc2ccc(S(=O)(=O)NC(=O)c3ccc(N4CCN(CC5=C(c6ccc(Cl)cc6)CC(C)(C)CC5)CC4)cc3Oc3cnc4[nH]ccc4c3)cc2[N+](=O)[O-])CC1 [Example 121, 2-(1H-pyrrolo[2,3-b]pyridin-5-yloxy)-4-(4-((2-(4-chlorophenyl)-4,4-dimethylcyclohex-1-enyl)methyl)piperazin-1-yl)-N-(4-((cis-4-methoxycyclohexyl)methoxy)-3-nitrophenylsulfonyl)benzamide]
Second: CC1(C)CCC(CN2CCN(c3ccc(C(=O)NS(=O)(=O)c4ccc(OCC5(F)CCC(N(CCC#N)C6CC6)CC5)c([N+](=O)[O-])c4)c(Oc4cnc5[nH]ccc5c4)c3)CC2)=C(c2ccc(Cl)cc2)C1 (stereo not shown) [Example 363, 4-(4-{[2-(4-chlorophenyl)-4,4-dimethylcyclohex-1-en-1-yl]methyl}piperazin-1-yl)-N-{[4-({4-[(2-cyanoethyl)(cyclopropyl)amino]-1-fluorocyclohexyl}methoxy)-3-nitrophenyl]sulfonyl}-2-(1H-pyrrolo[2,3-b]pyridin-5-yloxy)benzamide]
The Ki of the first is lower: less than 10 pM for the first, 17 pM for the second. The first binds more tightly here.

CC1(C)CC(c2ccc(Cl)cc2)=C(CN2CCN(c3ccc(C(=O)NS(=O)(=O)c4ccc(OCC5COCCO5)c([N+](=O)[O-])c4)c(Oc4cnc5[nH]ccc5c4)c3)CC2)CO1 (stereo not shown) [Example 32, 4-(4-{[4-(4-chlorophenyl)-6,6-dimethyl-5,6-dihydro-2H-pyran-3-yl]methyl}piperazin-1-yl)-N-{[4-(1,4-dioxan-2-ylmethoxy)-3-nitrophenyl]sulfonyl}-2-(1H-pyrrolo[2,3-b]pyridin-5-yloxy)benzamide] and CC1(C)CCC(CN2CCN(c3ccc(C(=O)NS(=O)(=O)c4ccc(OCC5(F)CCN(C6CCOC6)CC5)c([N+](=O)[O-])c4)c(Oc4cnc5[nH]ccc5c4)c3)CC2)=C(c2ccc(Cl)cc2)C1 (stereo not shown) [Example 193, 4-(4-{[2-(4-chlorophenyl)-4,4-dimethylcyclohex-1-en-1-yl]methyl}piperazin-1-yl)-N-({4-[(4-fluoro-1-tetrahydrofuran-3-ylpiperidin-4-yl)methoxy]-3-nitrophenyl}sulfonyl)-2-(1H-pyrrolo[2,3-b]pyridin-5-yloxy)benzamide] cannot be ordered by Ki: less than 10 pM for the first, less than 10 pM for the second.

Compared with COCCNc1ccc(S(=O)(=O)NC(=O)c2ccc(N3CCN(CC4=C(c5ccc(Cl)cc5)CC(C)(C)CC4)CC3)cc2Oc2cnc3[nH]ccc3c2)cc1S(=O)(=O)C(F)(F)F [Example 16, 4-(4-{[2-(4-chlorophenyl)-4,4-dimethylcyclohex-1-en-1-yl]methyl}piperazin-1-yl)-N-({4-[(2-methoxyethyl)amino]-3-[(trifluoromethyl)sulfonyl]phenyl}sulfonyl)-2-(1H-pyrrolo[2,3-b]pyridin-5-yloxy)benzamide], CC1(C)CCC(CN2CCN(c3ccc(C(=O)NS(=O)(=O)c4ccc(NC[C@@H]5CCN(C6COC6)C5)c([N+](=O)[O-])c4)c(Oc4cnc5[nH]ccc5c4)c3)CC2)=C(c2ccc(Cl)cc2)C1 [Example 209, 4-(4-{[2-(4-chlorophenyl)-4,4-dimethylcyclohex-1-en-1-yl]methyl}piperazin-1-yl)-N-{[3-nitro-4-({[(3S)-1-oxetan-3-ylpyrrolidin-3-yl]methyl}amino)phenyl]sulfonyl}-2-(1H-pyrrolo[2,3-b]pyridin-5-yloxy)benzamide] is lower in Ki: 219 pM for the first, less than 10 pM for the second. The second binds more tightly here.

CC1(C)CCC(CN2CCN(c3ccc(C(=O)NS(=O)(=O)c4cnc(OCC5(F)CCN(C(CF)CF)CC5)c(C(F)(F)F)c4)c(Oc4cnc5[nH]ccc5c4)c3)CC2)=C(c2ccc(Cl)cc2)C1 [Example 288, 4-(4-{[2-(4-chlorophenyl)-4,4-dimethylcyclohex-1-en-1-yl]methyl}piperazin-1-yl)-N-{[6-{[1-(1,3-difluoropropan-2-yl)-4-fluoropiperidin-4-yl]methoxy}-5-(trifluoromethyl)pyridin-3-yl]sulfonyl}-2-(1H-pyrrolo[2,3-b]pyridin-5-yloxy)benzamide] gave a Ki of 251 pM.

Same assay, conditions: TR-FRET Bcl-2 Binding Ki

CN1CCN(Nc2ccc(S(=O)(=O)NC(=O)c3ccc(N4CCN(CC5=C(c6ccc(Cl)cc6)CC(C)(C)CC5)CC4)cc3Oc3ccc4[nH]ccc4c3)cc2[N+](=O)[O-])CC1 [Example 91, 4-(4-{[2-(4-chlorophenyl)-4,4-dimethylcyclohex-1-en-1-yl]methyl}piperazin-1-yl)-2-(1H-indol-5-yloxy)-N-({4-[(4-methylpiperazin-1-yl)amino]-3-nitrophenyl}sulfonyl)benzamide] gave a Ki of 487 pM.

Same assay, conditions: Table 5, direct comparison Z=N vs Z=C analogs; read-out: Bcl-2 FRET ki

Work on COCCNc1ccc(S(=O)(=O)NC(=O)c2ccc(N3CCN(CC4=C(c5ccc(Cl)cc5)CC(C)(C)CC4)CC3)cc2Oc2cnc3[nH]ccc3c2)cc1S(=O)(=O)C(F)(F)F [Example 16, 4-(4-{[2-(4-chlorophenyl)-4,4-dimethylcyclohex-1-en-1-yl]methyl}piperazin-1-yl)-N-({4-[(2-methoxyethyl)amino]-3-[(trifluoromethyl)sulfonyl]phenyl}sulfonyl)-2-(1H-pyrrolo[2,3-b]pyridin-5-yloxy)benzamide] yielded a Ki of 219 pM.

Same assay, conditions: read-out: Bcl-2 FRET ki

Compound CN1CCN(Nc2ccc(S(=O)(=O)NC(=O)c3ccc(N4CCN(CC5=C(c6ccc(Cl)cc6)CC(C)(C)CC5)CC4)cc3Oc3ccc4[nH]ccc4c3)cc2[N+](=O)[O-])CC1 [Example 91, 4-(4-{[2-(4-chlorophenyl)-4,4-dimethylcyclohex-1-en-1-yl]methyl}piperazin-1-yl)-2-(1H-indol-5-yloxy)-N-({4-[(4-methylpiperazin-1-yl)amino]-3-nitrophenyl}sulfonyl)benzamide] has a Ki of 487 pM.

From patent publication US8580794B2 (AbbVie Inc., priority 2009, dated 2013)
